{
  "source": "patent EP4501112A1",
  "about": "“PLANT DEFENSE ELICITORS” (Globachem NV, priority 2023, dated 2025)",
  "format_in_all_cases": "in vivo",
  "key": {"[1]": {"system": "Puccinia triticina (PUCCTR)", "test": "Greenhouse trial, seed treatment against PUCCTR in wheat", "excerpt": "[table] Table 9. Efficacy assessment of pelargonic acid as seed treatment of PUCCTR in wheat (variety Benchmark)"}, "Fusarium culmorum": {"system": "Fusarium culmorum", "test": "whole plant or invertebrate", "conditions": "Fusarium culmorum, in Triticum aestivum, 144 h, read-out: % Efficacy"}, "Cacopsylly pyri": {"system": "Cacopsylly pyri", "test": "Field trial, foliar spray against C. pyri on pear trees", "conditions": "650 g/ha", "excerpt": "DISEASE/PEST: Cacopsylly pyri CROP: Pear trees (pyrus communis spp. Williams) APPLICATION: Foliar spray (spring - when 50% of eggs are yellow) EXPERIMENT/TRIAL PROTOCOL: Foliar spray was applied in the field with a motorized sprayer (OleomacSP126) in spring when the insects appeared on the crop (BBCH 72-75). The trial design consisted of a randomized complete block with 4 replications per treatment. The treated area per plot was 24m^2. Used water volume was […]/ha. Evaluation was done by counting nymphs per 10 shoots. […] This is due to the effect on the plant's immune system. […] Table 6. Efficacy assessment: % efficacy versus untreated (%UNCK) of C. pyri on P. communis (field)"}, "[2]": {"system": "English grain aphid (Sitobion avenae)", "test": "Survival of S. avenae on wheat after foliar spray (greenhouse pots)", "conditions": "0.65 g pelargonic acid in 500 mL water", "method": "DISEASE/PEST: English grain aphid (Sitobion avenae) CROP: WHEAT (Triticum aestivum) APPLICATION: FOLIAR PROTOCOL: T. aestivum plants were grown in pots (8x8 cm) in the greenhouse until reaching a height of 10 cm. Each pot contained 50 seeds. Each treatment consisted of 3 replicates. Plants were sprayed with a handheld sprayer containing 0.65 g of pelargonic acid in 500 mL of water for the 3 replicates. Control plants were sprayed with water. Spraying solutions (as noted in the Table 1) were prepared freshly before treatment. S. avenae (N=10) were added 1 hour after spraying. Insects were counted, 1, 4, 6, 12 and 14 days after the treatment applied. Table 1. Efficacy assessment survival of S. avenae on T. aestivum (number of aphids)"}, "S. exigua": {"system": "S. exigua", "test": "Direct feeding of pelargonic acid (comparative example 1c)", "conditions": "Table 3 is an image", "excerpt": "Example 1c. Direct effect pelargonic acid (Comparative example) [table]"}, "[3]": {"conditions": "seed treatment 3.8 g ai/ton, 11 dai"}, "[4]": {"conditions": "seed treatment 7.6 g ai/ton, 11 dai"}, "[5]": {"conditions": "seed treatment 38 g ai/ton, 11 dai"}, "[6]": {"conditions": "seed treatment 76 g ai/ton, 21 dai"}},
  "data": [
    {"smiles": "CCCCCCCCC(=O)O", "note": "[Pelargonic acid, pelargonic acid]", "values": [
      {"measurement": "EFFICACY % ALL LEAVES", "setting": "[1]; [3]", "result": 17.3, "unit": "%"},
      {"measurement": "EFFICACY % LEAF 1", "setting": "[1]; [3]", "result": 0.0, "unit": "%"},
      {"measurement": "EFFICACY % LEAF 2", "setting": "[1]; [3]", "result": 14.3, "unit": "%"},
      {"measurement": "EFFICACY % LEAF 3", "setting": "[1]; [3]", "result": 17.6, "unit": "%"},
      {"measurement": "EFFICACY % LEAF 4", "setting": "[1]; [3]", "result": 20.0, "unit": "%"},
      {"measurement": "EFFICACY % ALL LEAVES", "setting": "[1]; [4]", "result": 29.6, "unit": "%"},
      {"measurement": "EFFICACY % LEAF 1", "setting": "[1]; [4]", "result": 0.0, "unit": "%"},
      {"measurement": "EFFICACY % LEAF 2", "setting": "[1]; [4]", "result": 7.1, "unit": "%"},
      {"measurement": "EFFICACY % LEAF 3", "setting": "[1]; [4]", "result": 11.8, "unit": "%"},
      {"measurement": "EFFICACY % LEAF 4", "setting": "[1]; [4]", "result": 70.0, "unit": "%"},
      {"measurement": "EFFICACY % ALL LEAVES", "setting": "[1]; [5]", "result": 6.3, "unit": "%"},
      {"measurement": "EFFICACY % LEAF 1", "setting": "[1]; [5]", "result": 0.0, "unit": "%"},
      {"measurement": "EFFICACY % LEAF 2", "setting": "[1]; [5]", "result": 7.1, "unit": "%"},
      {"measurement": "EFFICACY % LEAF 3", "setting": "[1]; [5]", "result": 11.8, "unit": "%"},
      {"measurement": "EFFICACY % LEAF 4", "setting": "[1]; [5]", "result": 0.0, "unit": "%"},
      {"measurement": "EFFICACY % ALL LEAVES", "setting": "[1]; [6]", "result": 19.2, "unit": "%"},
      {"measurement": "EFFICACY % LEAF 1", "setting": "[1]; [6]", "result": 31.8, "unit": "%"},
      {"measurement": "EFFICACY % LEAF 2", "setting": "[1]; [6]", "result": 18.9, "unit": "%"},
      {"measurement": "EFFICACY % LEAF 3", "setting": "[1]; [6]", "result": 12.0, "unit": "%"},
      {"measurement": "EFFICACY % LEAF 4", "setting": "[1]; [6]", "result": 14.0, "unit": "%"},
      {"measurement": "Emax", "setting": "Fusarium culmorum", "result": 100, "unit": "%"},
      {"measurement": "% efficacy versus untreated (%UNCK) of C. pyri on P. communis (field)", "setting": "Cacopsylly pyri; 14 DAA", "result": 56.4, "unit": "b %"},
      {"measurement": "% efficacy versus untreated (%UNCK) of C. pyri on P. communis (field)", "setting": "Cacopsylly pyri; 21 DAA", "result": 63.1, "unit": "b %"},
      {"measurement": "% efficacy versus untreated (%UNCK) of C. pyri on P. communis (field)", "setting": "Cacopsylly pyri; 28 DAA", "result": 100, "unit": "b %"},
      {"measurement": "% efficacy versus untreated (%UNCK) of C. pyri on P. communis (field)", "setting": "Cacopsylly pyri; 800L/ha water, 3 DAA", "result": 83.8, "unit": "b %"},
      {"measurement": "survival of S. avenae on T. aestivum (number of aphids)", "setting": "[2]; 4 DAT", "result": 4.2},
      {"measurement": "survival of S. avenae on T. aestivum (number of aphids)", "setting": "[2]; 6 DAT", "result": 7.4},
      {"measurement": "survival of S. avenae on T. aestivum (number of aphids)", "setting": "[2]; 10 aphids added 1 hour after spraying, 1 DAT", "result": 3},
      {"measurement": "survival of S. avenae on T. aestivum (number of aphids)", "setting": "[2]; 12 DAT", "result": 9.6},
      {"measurement": "survival of S. avenae on T. aestivum (number of aphids)", "setting": "[2]; 14 DAT", "result": 15},
      {"measurement": "direct control of S. exigua", "setting": "S. exigua", "result": "no direct control"}
    ]}
  ]
}
